# In patent publication US20030087316A1, “Diagnostic markers of liver dysfunction” (priority 2001, published 2003):
# Entries after “also recorded” stand apart in the source; their conditions may differ. Non-standard residues stand in square brackets, D forms with d. No end group written: not given here. *: point of attachment. pNA = O=[N+]([O-])c1ccc(N*)cc1
# What was measured:
# [1] = biological target: T1, plasma kallikrein (Homo sapiens, UniProt P03952); test: Peptidase (amidolytic) activity of purified plasma kallikrein, chromogenic substrate, OD 405 nm; format: biochemical; conditions: for Cleavage of the substrate by plasma kallikrein, in words: enzyme 10 nM, 37° C., 15 min (FIG. 7)
# T1 construct: The light chain of kallikrein contains the enzymatic domain; purchased Calbiochem-Novabiochem Corp (La Jolla, Calif.)
# Description: (§1) The peptidase activity in plasma samples or of the purified enzymes were routinely determined at 37° C. in a 96-well plate. Each well contained 0.5 mM substrate in 100 μl of Tris-buffered saline (TBS)-EDTA buffer (50 mM Tris/150 mM NaCl/10 mM EDTA, pH 7.8) and the reaction was monitored using a microplate reader (Titertek Multiscan, Labsystems, Needham Heights, Mass.).
# (§2) […] EDTA plasma samples from LTR were diluted 10 or 20-fold with TBS-EDTA. The chromogenic substrate AGLTR-pNA was used for all enzymes and LTR samples except C1s where the substrate S2288 was used. Based on the initial rate of increase in OD at 405 nm, the residual free enzyme level was calculated and expressed as a percentage of total activity without inhibitor added.
# (§3) Ten-fold diluted normal EDTA plasma was added to each enzyme. […] LTR samples were 10 or 20-fold diluted with TBS-EDTA. The chromogenic substrate AGLTR-pNA was used for all enzymes and LTP samples except C1s where the substrate S2288 was used. Based on the initial rate of increase in OD at 405 nm, the residual free enzyme was calculated and expressed as a percentage of total activity determined without inhibitor added.
# [2] = biological target: T2, thrombin (Homo sapiens, UniProt P00734); test: Peptidase (amidolytic) activity of purified thrombin, chromogenic substrate, OD 405 nm; format: biochemical; conditions: for Cleavage of the substrate by thrombin, in words: enzyme 10 nM, 37° C., 15 min (FIG. 7)
# T2 construct: purchased Calbiochem-Novabiochem Corp (La Jolla, Calif.)
# [3] = tested on: proteinase(s) in EDTA plasma from LTR (kallikrein-like peptidase); test: Peptidase activity in EDTA plasma from liver transplant recipients (LTR), chromogenic substrate, OD 405 nm; format: biochemical, human; conditions: Table 2, substrate AGLTR-pNA, 60 min at 4° C. with LBTI 1 mg/ml, SBTI I mg/ml, aprotinin 0.075 mg/ml, benzamidine 50 mM or Futhan 0.1 mg/ml
# Description: Blood samples were drawn into 5 ml EDTA tubes (Venoject; Terumo Corp., Elkton, Md.). The plasma was collected immediately by centrifugation at 2,000×g for 15 min at 4° C. The plasma samples were either processed immediately for analysis or stored at −70° C. Frozen samples were thawed at 4° C. prior to analysis.
# as §1
# (§4) The enzymes C1s (100 nM), plasm in (100 nM), thrombin (100 nM), plasma kallikrein (20 nM), β-FXIIa (100 nM), trypsin (16 nM) or LTR EDTA plasma samples were incubated for 60 min at 4° C. with TBS-EDTA buffer containing either LBTI (1 mg/ml), SBTI (I mg/ml), aprotinin (0.075 mg/ml), benzamidine (50 mM), or Futhan (0.1 mg/ml), before mixing with the substrate. EDTA plasma samples from LTR were diluted 10 or 20-fold with TBS-EDTA. The chromogenic substrate AGLTR-pNA was used for all enzymes and LTR samples except C1s where the substrate S2288 was used. Based on the initial rate of increase in OD at 405 nm, the residual free enzyme level was calculated and expressed as a percentage of total activity without inhibitor added.
# (§5) Ten-fold diluted normal EDTA plasma was added to each enzyme. The enzymes C1s (100 nM), plasmin (100 nM), thrombin (100 nM), plasma kallikrein (20 nM), β-FXIIa (100 nM), trypsin (16 nM) or LTR EDTA plasma samples were incubated for 60 min at 4° C. with TBS-EDTA buffer containing either C1INH (40 μg/ml), bdellin (50 μg/ml), hirudin (50 U/ml), PPACK 11(10 μM), or CTI (100 μg/ml), before adding the substrate. LTR samples were 10 or 20-fold diluted with TBS-EDTA. The chromogenic substrate AGLTR-pNA was used for all enzymes and LTP samples except C1s where the substrate S2288 was used. Based on the initial rate of increase in OD at 405 nm, the residual free enzyme was calculated and expressed as a percentage of total activity determined without inhibitor added.
# [4] = biological target: T3, C1s (Homo sapiens, UniProt P09871); test: Peptidase (amidolytic) activity of purified C1s, chromogenic substrate, 96-well plate, OD 405 nm; format: biochemical; conditions: Table 2; C1s 100 nM, substrate S2288; 60 min at 4° C. with LBTI 1 mg/ml, SBTI I mg/ml, aprotinin 0.075 mg/ml, benzamidine 50 mM or Futhan 0.1 mg/ml; % of total activity without inhibitor
# T3 construct: purchased Advanced Research Technologies (San Diego, Calif.)
# T3 sequence (P09871 438-688 limits assumed): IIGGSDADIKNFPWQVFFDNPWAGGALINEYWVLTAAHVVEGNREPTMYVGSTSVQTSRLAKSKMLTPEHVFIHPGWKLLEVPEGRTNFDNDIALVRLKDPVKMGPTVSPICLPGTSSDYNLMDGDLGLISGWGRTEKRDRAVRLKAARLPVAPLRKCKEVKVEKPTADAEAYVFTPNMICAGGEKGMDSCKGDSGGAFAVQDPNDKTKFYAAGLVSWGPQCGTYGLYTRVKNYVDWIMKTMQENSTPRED
# T3 sequence (P09871 16-437 partner limits assumed): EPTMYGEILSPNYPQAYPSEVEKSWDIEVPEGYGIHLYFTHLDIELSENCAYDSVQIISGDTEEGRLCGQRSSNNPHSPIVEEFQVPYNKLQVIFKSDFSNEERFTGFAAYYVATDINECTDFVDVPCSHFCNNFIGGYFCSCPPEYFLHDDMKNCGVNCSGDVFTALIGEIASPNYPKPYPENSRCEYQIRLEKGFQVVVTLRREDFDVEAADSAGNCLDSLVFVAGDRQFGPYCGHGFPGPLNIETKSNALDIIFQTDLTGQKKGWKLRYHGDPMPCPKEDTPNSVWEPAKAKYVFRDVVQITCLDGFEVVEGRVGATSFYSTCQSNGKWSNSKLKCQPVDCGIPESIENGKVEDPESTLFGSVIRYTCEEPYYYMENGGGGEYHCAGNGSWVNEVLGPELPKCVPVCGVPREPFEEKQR
# Description: as §1, §4, §5
# [5] = tested on: all of the enzymes examined; test: General serine proteinase inhibitors on selected proteinases (summary over the enzymes); format: biochemical; conditions: Table 2; benzamidine 50 mM, Futhan 0.1 mg/ml
# Description: as §1, §4
# [6] = biological target: T4, plasmin (Homo sapiens, UniProt P00747); test: Peptidase (amidolytic) activity of purified plasmin, chromogenic substrate, OD 405 nm; format: biochemical; conditions: Table 2; plasmin 100 nM, substrate AGLTR-pNA; 60 min at 4° C. with LBTI 1 mg/ml, SBTI I mg/ml, aprotinin 0.075 mg/ml, benzamidine 50 mM or Futhan 0.1 mg/ml
# T4 construct: purchased Calbiochem-Novabiochem Corp (La Jolla, Calif.)
# Description: as §1, §4, §5
# [7] = biological target: T5, β-Factor XIIa (β-FXIIa) (Homo sapiens, UniProt P00748); test: Peptidase (amidolytic) activity of purified β-FXIIa, chromogenic substrate, OD 405 nm; format: biochemical; conditions: for Cleavage of the substrate by β-FXIIa, in words: enzyme 10 nM, 37° C., 15 min (FIG. 7)
# T5 construct: β-Factor XIIa (β-FXIIa) was kindly provided by Dr. Mary J. Heeb; gift of Dr. Mary J. Heeb, The Scripps Research Institute
# Description: as §1, §2, §3
# [8] = tested on: trypsin; test: Peptidase (amidolytic) activity of purified trypsin, chromogenic substrate, OD 405 nm; format: biochemical; conditions: Table 2; trypsin 16 nM, substrate AGLTR-pNA; 60 min at 4° C. with LBTI 1 mg/ml, SBTI I mg/ml, aprotinin 0.075 mg/ml, benzamidine 50 mM or Futhan 0.1 mg/ml
# Description: as §1, §4
# [9] = tested on: trypsin; test: as above; format: biochemical; conditions: enzyme 10 nM, 37° C., 15 min (FIG. 7)
# [10] = biological target: T4, plasmin; test: Peptidase (amidolytic) activity of purified plasmin, chromogenic substrate, OD 405 nm; format: biochemical; conditions: enzyme 10 nM, 37° C., 15 min (FIG. 7)
# [11] = biological target: T3, C1s; test: Peptidase (amidolytic) activity of purified C1s, chromogenic substrate, 96-well plate, OD 405 nm; format: biochemical; conditions: enzyme 10 nM, 37° C., 15 min (FIG. 7)
# [12] = tested on: tissue kallikrein; test: Peptidase activity of purified tissue kallikrein on chromogenic substrates; format: biochemical; conditions: enzyme 10 nM, 37° C., 15 min (FIG. 7)
# Description: as §1
# [13] = tested on: proteinase(s) in EDTA plasma from LTR (kallikrein-like peptidase); test: Peptidase activity in EDTA plasma from liver transplant recipients (LTR), chromogenic substrate, OD 405 nm; format: biochemical, human; conditions: Sephacryl S-300 fractions of LTR plasma, 37° C. (FIG. 4)
# T5 sequence (P00748 373-615 limits assumed, other chains not shown): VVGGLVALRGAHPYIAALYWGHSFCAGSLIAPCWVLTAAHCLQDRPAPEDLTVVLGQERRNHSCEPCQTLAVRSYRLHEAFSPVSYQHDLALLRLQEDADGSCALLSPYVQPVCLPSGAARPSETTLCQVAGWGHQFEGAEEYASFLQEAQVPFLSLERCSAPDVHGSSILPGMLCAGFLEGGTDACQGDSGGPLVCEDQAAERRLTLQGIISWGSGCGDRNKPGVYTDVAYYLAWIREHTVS
# T4 sequence (P00747 581-810 limits assumed, species assumed): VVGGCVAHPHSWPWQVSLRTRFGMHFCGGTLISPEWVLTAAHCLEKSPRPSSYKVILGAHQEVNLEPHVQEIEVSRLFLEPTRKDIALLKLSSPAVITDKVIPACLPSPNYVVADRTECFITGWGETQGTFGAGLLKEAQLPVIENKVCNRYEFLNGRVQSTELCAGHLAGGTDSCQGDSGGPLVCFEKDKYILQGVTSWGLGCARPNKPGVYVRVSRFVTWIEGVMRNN
# T4 sequence (P00747 97-580 partner limits assumed, species assumed): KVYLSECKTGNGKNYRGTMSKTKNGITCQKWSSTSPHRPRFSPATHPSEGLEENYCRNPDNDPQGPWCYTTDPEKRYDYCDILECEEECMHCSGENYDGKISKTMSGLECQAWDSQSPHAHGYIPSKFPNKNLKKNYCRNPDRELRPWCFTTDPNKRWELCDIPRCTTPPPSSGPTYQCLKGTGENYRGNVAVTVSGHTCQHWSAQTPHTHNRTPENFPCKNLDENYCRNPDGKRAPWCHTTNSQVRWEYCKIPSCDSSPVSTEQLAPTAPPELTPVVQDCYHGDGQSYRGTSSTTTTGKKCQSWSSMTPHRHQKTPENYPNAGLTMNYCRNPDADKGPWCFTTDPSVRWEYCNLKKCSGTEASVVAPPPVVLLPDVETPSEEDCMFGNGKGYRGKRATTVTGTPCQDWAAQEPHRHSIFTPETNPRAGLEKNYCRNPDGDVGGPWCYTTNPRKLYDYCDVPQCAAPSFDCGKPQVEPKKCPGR
# T1 sequence (P03952 391-638 limits assumed): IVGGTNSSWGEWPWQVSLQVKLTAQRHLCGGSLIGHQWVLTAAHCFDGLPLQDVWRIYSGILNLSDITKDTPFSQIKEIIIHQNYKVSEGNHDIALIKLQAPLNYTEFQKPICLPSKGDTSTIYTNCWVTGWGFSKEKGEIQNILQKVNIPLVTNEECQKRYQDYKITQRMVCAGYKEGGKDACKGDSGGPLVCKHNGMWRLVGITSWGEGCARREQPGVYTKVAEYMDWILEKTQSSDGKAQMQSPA
# T1 sequence (P03952 20-390 partner limits assumed): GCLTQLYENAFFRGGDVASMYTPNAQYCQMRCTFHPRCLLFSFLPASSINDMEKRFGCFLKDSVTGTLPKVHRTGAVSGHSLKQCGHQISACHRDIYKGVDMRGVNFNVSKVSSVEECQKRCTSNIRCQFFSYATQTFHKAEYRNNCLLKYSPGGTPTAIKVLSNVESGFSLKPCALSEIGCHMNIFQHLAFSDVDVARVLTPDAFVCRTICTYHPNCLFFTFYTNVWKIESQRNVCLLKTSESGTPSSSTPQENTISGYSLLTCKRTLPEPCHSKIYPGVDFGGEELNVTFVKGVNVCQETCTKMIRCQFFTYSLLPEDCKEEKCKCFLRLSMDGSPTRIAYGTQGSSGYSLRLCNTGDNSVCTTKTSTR
Compound,"% Residual activity, Plasma Kallikrein ([1]; Table 2, plasma kallikrein 20 nM, substrate AGLTR-pNA, 60 min at 4° C. with LBTI 1 mg/ml, SBTI I mg/ml, aprotinin 0.075 mg/ml, benzamidine 50 mM or Futhan 0.1 mg/ml) [%]","% Residual activity, Thrombin ([2]; Table 2, thrombin 100 nM, substrate AGLTR-pNA, 60 min at 4° C. with LBTI 1 mg/ml, SBTI I mg/ml, aprotinin 0.075 mg/ml, benzamidine 50 mM or Futhan 0.1 mg/ml) [%]","% Residual activity, LTR 1 ([3]; LTR 1 EDTA plasma diluted 10 or 20-fold) [%]","% Residual activity, LTR 2 ([3]; LTR 2 EDTA plasma diluted 10 or 20-fold) [%]","% Residual activity, LTR 3 ([3]; LTR 3 EDTA plasma diluted 10 or 20-fold) [%]","% Residual activity, C1s [4] [%]","Inhibition of all of the enzymes examined, in words [5]","% Residual activity, Plasmin [6] [%]","% Residual activity, β-FXIIa ([7]; Table 2, β-FXIIa 100 nM, substrate AGLTR-pNA, 60 min at 4° C. with LBTI 1 mg/ml, SBTI I mg/ml, aprotinin 0.075 mg/ml, benzamidine 50 mM or Futhan 0.1 mg/ml) [%]","% Residual activity, Trypsin [8] [%]","Cleavage of the substrate by plasma kallikrein, in words [1]","Cleavage of the substrate by thrombin, in words [2]","Cleavage of the substrate by trypsin, in words [9]","Cleavage of the substrate by plasmin, in words [10]","Cleavage of the substrate by C1s, in words [11]","Cleavage of the substrate by β-FXIIa, in words [7]","Cleavage of the substrate by tissue kallikrein, in words [12]","Rate of conversion of the substrate by gel filtered LTR plasma, relative to AGLTR-pNA, in words [13]"
"N=C(N)c1ccccc1 [Benzamidine, benzamidine]",2.0,1.6,0.5,−0.3,1.5,6.6,very efficient inhibitors for all of the enzymes examined,3.9,10.9,5.8,–,–,–,–,–,–,–,–
Ac-Ala-Gly-Leu-Thr-Arg-p-nitroanilide (Ac-AGLTR-pNA; SMILES CC(=O)N[C@@H](C)C(=O)NCC(=O)N[C@@H](CC(C)C)C(=O)N[C@H](C(=O)N[C@@H](CCCNC(=N)N)C(=O)Nc1ccc([N+](=O)[O-])cc1)[C@@H](C)O),–,–,–,–,–,–,–,–,–,–,cleaved AGLTR-pNA relatively efficiently,poorly cleaved,cleaved AGLTR-pNA relatively efficiently,poorly cleaved,almost no ability to cleave this substrate; also recorded: neither C1s nor any of the other proteinases efficiently cleaved this substrate,almost no ability to cleave this substrate,almost no ability to cleave this substrate,–
[dI]-Pro-Arg-pNA [S2288],–,–,–,–,–,–,–,–,–,–,cleaved S2302 more rapidly than S2288,cleaved substrate S2288 more efficiently than S2302; also recorded: preferred S2288 over either AGLTR-pNA or S2302,cleaved substrate S2288 more efficiently than S2302,least active on these substrates,least active on these substrates,least active on these substrates,least active on these substrates,somewhat greater than that using AGLTR-pNA
[dP]-Phe-Arg-pNA [S2302],–,–,–,–,–,–,–,–,–,–,cleaved S2302 more rapidly than S2288,cleaved substrate S2288 more efficiently than S2302,cleaved substrate S2288 more efficiently than S2302,least active on these substrates,least active on these substrates,least active on these substrates,least active on these substrates,somewhat greater than that using AGLTR-pNA
